Read-outs that look alike come from different tables or passages of the source. Marks after values point to notes of the source that are not given here.
Experiments:
[1] = test system: 8392B cell line; experiment: two hour toxicity: inhibition of 50% of DNA synthesis activity, nontarget cell line; type: cell-based; settings: read-out: Mean IC50 value, 8392B Nontarget Cell Line, 2 hr exposure, mean ± SD, N = 3 unless otherwise indicated
Description: (§1) The MV522 cell line is a lung-derived adenocarcinoma cell line. In various embodiments of the invention, the MV522 cell line represents a “target” cell line. […] The two hour toxicity data represents the concentration of a given analog for which a two hour exposure will inhibit 50% of the DNA synthesis activity in a given cell line. The 48 hour exposure data represents the concentration at which a given analog with a 48 hour exposure will inhibit the growth or viability in a given cell line as defined by the standard Trypan Blue Exclusion assay.

[2] = test system: MV522 cell line; experiment: two hour toxicity: inhibition of 50% of DNA synthesis activity, target cell line; settings: for IC50: read-out: Mean IC50 value, MV522 Target Cell Line, 2 hr exposure, MV522 target cell line, 2 hr exposure, mean ± SD, N = 3 unless otherwise indicated; for cytotoxicity (in words): see Table XV
Description: as §1

[3] = test system: 8392B cell line; experiment: 48 hour exposure, growth or viability by Trypan Blue Exclusion assay, nontarget cell line; type: cell-based; settings: read-out: Mean IC50 value, 8392B Nontarget Cell Line, 48 hr exposure; 8392B nontarget cell line; 48 hr exposure; mean ± SD, N = 3 unless otherwise indicated
Description: as §1

[4] = test system: MV522 cell line; experiment: 48 hour exposure, growth or viability by Trypan Blue Exclusion assay, target cell line; type: cell-based; settings: read-out: Mean IC50 value, MV522 Target Cell Line, 48 hr exposure, mean ± SD, N = 3 unless otherwise indicated
Description: as §1

[5] = test system: Prostate LnCAP (positive PSA); experiment: activity of PSA cleavable analogs, 48 hour exposure, PSA positive cell line; type: cell-based; settings: N = 3, mean ± SD
[6] = test system: NCI-DTP 60 cell line panel; settings: cited from earlier work
[7] = test system: MCF7 (ER positive); experiment: cytotoxic data IC50, 2 hour exposure, cells expressing the estrogen receptor; type: cell-based; settings: Table VII
Text: MCF7 over express estrogen alpha-receptors.
MCF7 cells over express estrogen alpha-receptors.

[8] = test system: MDR phenotypes; experiment: multidrug resistance studies (mechanisms of drug resistance); type: cell-based; settings: multi-medicant resistance phenotype, Bcl-2 over expression, p53 and p21/WAF1 mutations
[9] = test system: hormone-refractory prostate cancer; settings: cited from earlier work

Structure (SMILES) | IC50 [1] [µM] | IC50 [2] [µM] | IC50 [3] [µM] | also measured
CC1=C(OC(=O)CCCCC(=O)c2ccccc2)C2=C(C)C3(CC3)[C@@](C)(O)C(=O)C2=C1 [Analog 158] | > 200 | > 175 |  | 
CC1=C2C(=O)C(C)(OC(C)C)CC2C(O)C(=O)C12CC2 (centres unmarked) [Analog 183] | > 120 | > 120 | > 235 | 
CC1=CC2C(=C(C)C3(CC3)C(C)(O)C2O)C1=O (centres unmarked) [Analog 186] |  | 144 ± 32 |  | IC50 [4]: 70 ± 16 µM
CC1=C(CN2C(=O)C=CC2=O)C2=C(C)C3(CC3)[C@@](C)(O)C(=O)C2=C1 [Analog 189] |  |  |  | cytotoxicity (in words) [2]: cytotoxic with nM activity
CC1=C(CCCN2C(=O)C=CC2=O)C2=C(C)C3(CC3)[C@@](C)(O)C(=O)C2=C1 [Analog 190] |  |  |  | cytotoxicity (in words) [2]: cytotoxic with nM activity
CC1=C2C(=CC(C)(CO[Si](C)(C)C(C)(C)C)C2N)C(=O)C(C)(O)C12CC2 (centres unmarked) [Analog 205] | > 185 | 8.4 ± 2.2 | > 2.6 | 
CC1=C2C(=C[C@@](C)(CO[Si](C)(C)C(C)(C)C)[C@@H]2OC(=O)[C@@H]2CCCN2C(=O)[C@H](CO)NC(=O)[C@@H](N)CO)C(=O)[C@](C)(O)C12CC2 [Analog 214] |  |  |  | IC50 [5]: 0.19 ± 0.03 µM
CC1=C(COC(=O)CCCCCN2C(=O)C=CC2=O)C2=C(C)C3(CC3)[C@@](C)(O)C(=O)C2=C1 [Analog 217] |  |  |  | cytotoxicity (in words) [2]: cytotoxic with nM activity
CC1=C2C(=CC(C)(C)[C@@H]2OC(=O)CCCCCN2C(=O)C=CC2=O)C(=O)[C@](C)(O)C12CC2 [Analog 218] |  |  | 0.6 ± 0.1 | IC50 [4]: 0.6 ± 0.2 µM; cytotoxicity (in words) [2]: cytotoxic with nM activity
CC1=C2C(=C[C@@](C)(CO[Si](C)(C)C(C)(C)C)[C@@H]2OC(=O)c2ccc(S(=O)(=O)F)cc2)C(=O)[C@](C)(O)C12CC2 [Analog 219] | > 52 | > 52 | > 52 | 
CC1=C2C(=CC(C)(C)[C@@H]2OC(=O)c2ccc(S(=O)(=O)F)cc2)C(=O)[C@](C)(O)C12CC2 [Analog 222] | 9.3 |  |  | 
CC1=CC2=C(C)C3(CC3)C(C)(O)C(=NO)C2=C1 (centres unmarked) [Analog 224] |  |  |  | differential toxicity between the target and nontarget cell line ([2]; MV522 versus 8392B): no differential toxicity; toxicity (in words) ([2]; target and nontarget cell line): minimal toxicity
CC1=C(CCCNS(C)(=O)=O)C2=C(C)C3(CC3)[C@@](C)(O)C(=O)C2=C1 [Analog 241] | > 28 |  |  | 
CC1=C2[C@@H](O)C(C)(C)[C@H]3C[C@@]23C(=O)[C@](C)(O)C12CC2 [Analog 252] | > 380 | > 380 | > 380 | 
CC1=C(CCCNS(N)(=O)=O)C2=CC3(CC3)C(C)(O)C(=O)C2=C1 (centres unmarked) [Analog 264] | > 85 |  |  | IC50 [4]: 0.076 ± 0.017 µM
CC1=C(CCCNC(=O)OCC2=C(C(=O)O)N3C(=O)C(NC(=O)Cc4cccs4)C3S(=O)(=O)C2)C2=C(C)C3(CC3)C(C)(O)C(=O)C2=C1 (centres unmarked) [Analog 274] | > 46 |  | > 4.5 | 
CC[C@H](C)[C@@H]([C@@H](CC(=O)N1CCC[C@H]1[C@H](OC)[C@@H](C)C(=O)NCCc1ccccc1)OC)N(C)C(=O)[C@@H](NC(=O)[C@H](C(C)C)N(C)C)C(C)C [Auristatins] |  |  |  | Mean LD50 cytotoxic ([6]; NCI DTP 60 cell line mean): >5,000 nM; Mean TGI cytostatic ([6]; NCI DTP 60 cell line mean): 902** nM; GI50 ([6]; read-out: Mean GI50 inhibition, NCI DTP 60 cell line mean): 0.0014 µM
C=C1C[C@@H]2CC[C@@]34C[C@H]5O[C@H]6[C@@H](O3)[C@H]3O[C@H](CC[C@@H]3O[C@H]6[C@H]5O4)CC(=O)O[C@@H]3[C@@H](C)[C@@H]4O[C@@H]5C[C@]6(C[C@@H]7O[C@]8(C[C@H](C)[C@@H]9O[C@H]([C@@H](O)C[C@@H](O)CO)C[C@@H]9O8)C[C@H](C)[C@@H]7O6)O[C@@H]5C[C@@H]4O[C@H]3C[C@H]3O[C@@H](CC[C@@H]1O2)C[C@@H](C)C3=C [Halichondrin B] |  |  |  | Mean TGI cytostatic ([6]; NCI DTP 60 cell line mean): 199 nM; Mean LD50 cytotoxic [6]: >1,000 nM
CC1=C2C(=CC(C)(C)[C@@H]2O)C(=O)[C@](C)(O)C12CC2 [Illudin M, reference compound] |  |  |  | Mean LD50 cytotoxic ([6]; NCI DTP 60 cell line mean): 912 nM; preferential killing of MCF7 (ER positive) versus ER negative cells [7]: to the same extent
CC1=C(CO)C2=C(C)C3(CC3)[C@@](C)(O)C(=O)C2=C1 [Irofulven, 6-hydroxymethylacylfulvene] |  |  |  | activity versus common resistance mechanisms [8]: independent of common resistance mechanisms; clinical activity [9]: demonstrated clinical activity; safety profile [9]: acceptable safety profile

— patent publication US11241398B2, “Affinity medicant conjugate” (Califia Pharma Inc., priority 2014, dated 2022)
